Laboratory results from patent US4596808A, “Pharmacologically active 3-substituted beta-carbolines useful as tranquilizers” (Schering Aktiengesellschaft, priority 1980, dated 1986).
Read-outs that look alike come from different tables or passages of the source.

Columns and labels:
benzodiazepine receptor [1] = assay: Displacement of 3H-flunitrazepam from benzodiazepine receptors in vitro (IC50); assay type: binding; conditions: rat forebrain, 3H-flunitrazepam 1.0 nM, 0° C.
From the text: For example, it is known that certain locations in the central nervous system of vertebrates have a high specific affinity for bonding 1,4 and 1,5-benzodiazepines. (See, e.g., R. F. Squires & C. Braestrup, Nature [London] 266 [1977], 734, which is incorporated by reference herein). These locations are called benzodiazepine receptors.
This displacement activity of the compounds of this invention has been determined by measuring IC50 and ED50 values. The IC50 value is the concentration which causes a 50% displacement of the specific binding of ^3 H-flunitrazepam (1.0 nM, 0° C.) in samples with a total volume of 0.55 ml of a suspension of brain membrane, e.g., from rats.
The displacement test is carried out as follows:
0.5 ml of a suspension of untreated rat forebrain in 25 mM KH2 PO4, at a pH of 7.1 (5-10 mg of tissue per sample) were incubated with ^3 H-diazepam (specific activity 14.4 Ci/millimole, 1.9 nM) or ^3 H-flunitrazepam (specific activity 87 Ci/millimole, 1.0 nM) for 40-60 minutes at 0° C. After incubation, the suspension is filtered through a glass frit, the residue is washed twice with a cold buffer solution and the radioactivity is measured by scintillation counting.
The test is then repeated, except prior to addition of the radioactively marked benzodiazepine, a given amount or an excess amount of the compound whose displacement activity is to be ascertained, is added. The IC50 value can then be computed from the test results obtained.

male mice = assay: Inhibition of aggression in isolated male mice; assay type: in vivo; conditions: Mus musculus, 0.5 h, half an hour
Procedure: The compounds of the invention have an antiaggressive effect on mice. Aggression inhibition was determined on male mice (NMR from Moellegard, Denmark) with weights of 20-22 g. The mice are kept isolated for three weeks in plastic cages and when two mice are subsequently put into the same cage, they will spontaneously and almost instantaneously start to fight.
J. Pharmacol., 1978, 47, 45-49. The compounds of this invention were administered subcutaneously and orally and the anti-aggressive effect half an hour later was determined. The ED50 values were determined from the test results. These test results are listed in Table 2 for compounds of this invention and also for several known tranquilizers.

benzodiazepine receptor [2] = assay: In vivo inhibition of 3H-flunitrazepam binding to the benzodiazepine receptor in living brain (ED50); conditions: mice, subcutaneous, 3H-flunitrazepam i.v. 15 min later
[3] = tested on: pentazole-induced convulsions; assay: Antagonism of pentazole-induced convulsions; assay type: in vivo; conditions: sc
From the text: Moreover, the antagonism of pentazole-induced convulsions was investigated.
The test has been performed according to known test models in pharmacology,e.g., described in R. A. Turner, Screening Methods in Pharmacology, Academic Press, N.Y. and London 1965, esp. p. 164 ff., or, Woodbury, P. M., Perry, I. K. and Schmidt, R. P. Antiepileptic Drugs, Raven Press, N.Y. 1972.

[4] = sc, s.c., read-out: Inhibition of Aggression ED50, s.c.
[5] = clonic, read-out: Antagonism of pentazole-induced convulsions, ED50 s.c., Clonic convulsions
[6] = death, read-out: Antagonism of pentazole-induced convulsions, ED50 s.c., Death
[7] = tonic, read-out: Antagonism of pentazole-induced convulsions, ED50 s.c., Tonic convulsions
[8] = po, p.o., read-out: Inhibition of Aggression ED50, p.o.

| SMILES | In vitro IC50, inhibition of 3H flunitrazepam binding (Affinity for the benzodiazepine receptor) (benzodiazepine receptor [1]) [µg/mL] | ED50 (male mice; [4]) [mg/kg] | In vivo ED50, inhibition of 3H flunitrazepam binding (Affinity for the benzodiazepine receptor) (benzodiazepine receptor [2]) [mg/kg] | ED50 [3, 5] [mg/kg] | ED50 [3, 6] [mg/kg] | ED50 [3, 7] [mg/kg] | ED50 (male mice; [8]) [mg/kg] |
| --- | --- | --- | --- | --- | --- | --- | --- |
| CCOC(=O)Cc1cc2c(cn1)[nH]c1ccccc12 [CH2 COOC2 H5] | 0.363 | 75 | > 250 |  |  |  |  |
| CCOC(=O)C=Cc1cc2c(cn1)[nH]c1ccccc12 [CHCHCOOC2 H5, ethyl-3-(3-beta-carbolinyl)-acrylate] | 0.0589 | 4 | > 250 | > 100 | 35 | 100 |  |
| CON=Cc1cc2c(cn1)[nH]c1ccccc12 [CHNOCH3, beta-carboline-3-carboxaldehyde-oxime-methylether] | 0.0513 | 15 | 16 |  |  |  |  |
| CC(=O)ON=Cc1cc2c(cn1)[nH]c1ccccc12 [CHNOCOCH3] | 0.169 |  | > 250 |  |  |  |  |
| ON=Cc1cc2c(cn1)[nH]c1ccccc12 [CHNOH, beta-carboline-3-carboxaldehyde-oxime] | 0.0087 |  | 19 |  |  |  |  |
| CN(C)S(=O)(=O)c1ccc2[nH]c3cnc(C=NO)cc3c2c1 [CHNOH, drawing 36] | 0.0017 |  | 300 |  |  |  |  |
| O=Cc1cc2c(cn1)[nH]c1ccccc12 [CHO, beta-carboline-3-carboxaldehyde] | 0.0302 | 8 | > 250 |  |  |  |  |
| CN(C)S(=O)(=O)c1ccc2[nH]c3cnc(C=O)cc3c2c1 [CHO, drawing 30, 6-dimethylsulfamoyl-beta-carboline-3-carboxaldehyde] | > 0.1 |  | > 300 |  |  |  |  |
| O=C(c1ccccc1)c1cc2c(cn1)[nH]c1ccccc12 [COC6 H5, 3-benzoyl-beta-carboline] | 0.00427 |  | 223 |  |  |  |  |
| CCCCC(=O)c1cc2c(cn1)[nH]c1ccccc12 [COCH2 CH2 CH2 CH3, 3-pentanoyl-beta-carboline] | 0.02 |  | 144 |  |  |  |  |
| CNC(=O)CC(=O)c1cc2c(cn1)[nH]c1ccccc12 [COCH2 CONHCH3] | > 0.1 |  | > 250 |  |  |  |  |
| CC(=O)c1cc2c(cn1)[nH]c1ccccc12 [COCH3, 3-acetyl-beta-carboline] | 0.0224 | 35 | 100 | > 100 | 75 | 100 |  |
| O=CNC(=O)c1cc2c(cn1)[nH]c1ccccc12 [CONHCHO, beta-carboline-3-(N-formylcarboxamide)] | 0.034 |  | 197 |  |  |  |  |
| CC(=NO)c1cc2c(cn1)[nH]c1ccccc12 [drawing 11] | > 0.1 |  | 186 |  |  |  |  |
| CN(C)N=Cc1cc2c(cn1)[nH]c1ccccc12 [drawing 13] | 0.0417 |  | 54 |  |  |  |  |
| CCN(CC)N=Cc1cc2c(cn1)[nH]c1ccccc12 [drawing 23] | > 0.1 |  | 72 |  |  |  |  |

| SMILES | In vitro IC50, inhibition of 3H flunitrazepam binding (Affinity for the benzodiazepine receptor) (benzodiazepine receptor [1]) [µg/mL] | ED50 (male mice; [4]) [mg/kg] | In vivo ED50, inhibition of 3H flunitrazepam binding (Affinity for the benzodiazepine receptor) (benzodiazepine receptor [2]) [mg/kg] | ED50 [3, 5] [mg/kg] | ED50 [3, 6] [mg/kg] | ED50 [3, 7] [mg/kg] | ED50 (male mice; [8]) [mg/kg] |
| --- | --- | --- | --- | --- | --- | --- | --- |
| CC(=NN(C)C)c1cc2c(cn1)[nH]c1ccccc12 [drawing 25] | > 0.1 |  | 119 |  |  |  |  |
| C(=NN1CCCCC1)c1cc2c(cn1)[nH]c1ccccc12 [drawing 27] | > 0.1 |  | > 250 |  |  |  |  |
| C(=NN1CCOCC1)c1cc2c(cn1)[nH]c1ccccc12 [drawing 28] | > 0.1 |  | > 250 |  |  |  |  |
| C(=NN1CCCC1)c1cc2c(cn1)[nH]c1ccccc12 [drawing 31] | > 0.1 |  | 49 |  |  |  |  |
| CN(C)N=Cc1cc2c(cn1)[nH]c1ccc(S(=O)(=O)N(C)C)cc12 [drawing 32] | 0.004 |  | 35 |  |  |  |  |
| CN(C)S(=O)(=O)c1ccc2[nH]c3cnc(C=NN4CCCC4)cc3c2c1 [drawing 34] | 0.008 |  | 210 |  |  |  |  |
| CC(=NO)c1cc2c(cn1)[nH]c1ccccc12 [drawing 39] |  |  |  |  |  |  | 75 |
| CN(C)N=Cc1cc2c(cn1)[nH]c1ccccc12 [drawing 40] |  | 7.5 |  | 20 | < 10 | < 10 | ≤ 50 |
| CCN(CC)N=Cc1cc2c(cn1)[nH]c1ccccc12 [drawing 41] |  |  |  | > 100 | 100 | 100 |  |
| CC(=NN(C)C)c1cc2c(cn1)[nH]c1ccccc12 [drawing 42] |  |  |  | > 100 | 75 | 75 |  |
| C(=NN1CCCCC1)c1cc2c(cn1)[nH]c1ccccc12 [drawing 43] |  |  |  | > 100 | > 100 | 50 |  |
| C(=NN1CCOCC1)c1cc2c(cn1)[nH]c1ccccc12 [drawing 44] |  |  |  | 100 | 50 | 50 |  |
| C(=NN1CCCC1)c1cc2c(cn1)[nH]c1ccccc12 [drawing 45] |  |  |  | 20 | 15 | 15 |  |
| CN(C)N=Cc1cc2c(cn1)[nH]c1ccc(S(=O)(=O)N(C)C)cc12 [drawing 46] |  |  |  | 20 | 15 | 15 |  |
| CN(C)S(=O)(=O)c1ccc2[nH]c3cnc(C=NN4CCCC4)cc3c2c1 [drawing 48] |  |  |  | 50 | 20 | 20 |  |
